Like-named read-outs stand apart in the source and are kept apart here.
Legend:
[1] = target: T1, glucocorticoid receptor (Homo sapiens, UniProt P04150); test: Glucocorticoid Receptor Binding Assay (fluorescence polarisation, displacement of Alexa 555 labelled dexamethasone derivative); conditions: at least once in this assay; read-out: glucocorticoid binding pIC50 (converted)
T1 construct: a partially purified full length glucocorticoid receptor
T1 sequence (P04150 1-777): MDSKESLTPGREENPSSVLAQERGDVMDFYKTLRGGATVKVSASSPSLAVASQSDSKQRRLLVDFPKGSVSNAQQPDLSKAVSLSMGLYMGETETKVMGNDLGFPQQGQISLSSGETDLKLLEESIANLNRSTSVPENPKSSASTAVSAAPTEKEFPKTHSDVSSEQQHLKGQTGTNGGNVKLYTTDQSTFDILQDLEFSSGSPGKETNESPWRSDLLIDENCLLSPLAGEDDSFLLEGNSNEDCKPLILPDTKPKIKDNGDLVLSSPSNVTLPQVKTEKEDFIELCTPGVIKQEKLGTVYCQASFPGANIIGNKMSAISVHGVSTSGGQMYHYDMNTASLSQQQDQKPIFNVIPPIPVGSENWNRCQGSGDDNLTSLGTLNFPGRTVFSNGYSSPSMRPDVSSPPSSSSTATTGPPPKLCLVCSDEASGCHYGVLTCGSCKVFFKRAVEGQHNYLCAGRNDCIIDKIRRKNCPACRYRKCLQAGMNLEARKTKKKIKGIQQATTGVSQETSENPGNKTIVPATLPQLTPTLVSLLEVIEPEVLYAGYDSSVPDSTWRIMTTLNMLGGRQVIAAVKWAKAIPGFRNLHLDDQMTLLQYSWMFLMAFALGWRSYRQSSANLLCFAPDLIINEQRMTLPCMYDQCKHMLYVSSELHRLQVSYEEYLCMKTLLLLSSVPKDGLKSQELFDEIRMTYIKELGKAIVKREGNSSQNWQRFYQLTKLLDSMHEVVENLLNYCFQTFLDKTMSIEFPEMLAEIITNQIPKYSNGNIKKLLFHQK
Outline: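 Partially purified full-length GR incubated with test compound and fluorescent dexamethasone plus GR-stabilising buffer components, 2 hr at room temperature in the dark. Binding scored as displacement of tracer, read as decrease in fluorescence polarisation.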

[2] = target: T2, GR (Homo sapiens, UniProt P04150); test: GR Agonist Assay - MMTV Assay (A549 MMTV cells, renilla luciferase reporter); assay type: cell-based; conditions: 6 h, agonists, read-out: average maximum asymptote in the MMTV agonist assay
T2 construct: endogenous in cells; host or cells: A549 (human lung carcinoma, ECACC No. 86012804), stably transfected with reporter plasmids only
T2 sequence (P04150 1-777): T1 sequence (P04150 1-777)
Outline: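 Stably transfected A549 MMTV cells carry a GR-driven luciferase reporter. Cells at 0.1×10^6/ml in DMEM with 10% FCS and 25 mM HEPES were added to wells containing compound. After detection reagent, plates were held about 15 mins at room temperature and luminescence was read.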

[3] = target: T2, GR; test: GR Functional Assay - NFκB Assay (A549 SPAP cells, TNFα stimulated); assay type: cell-based
Outline: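 Stably transfected A549 SPAP cells at 0.16×10^6/ml in DMEM with 10% FCS were added to compound and stimulated with TNFα to drive NFκB-dependent SPAP expression. After 1 hr equilibration at room temperature, SPAP was read colorimetrically with pNPP in diethanolamine buffer, pH 9.8.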

[4] = Assay for Brain Penetrance; assay type: in vivo; conditions: brain and plasma, rat, single intravenous dose 1 mg/kg, read-out: brain to plasma ratio
Method: Each rat received a single intravenous dose at a level of 1 mg/kg. The dose was formulated in 10% DMSO/50% PEG200/40% sterile water. Terminal blood samples were taken at 5 or 15 mins after dosing, by cardiac puncture following anaesthesia with isofluorane. The brains were removed at the same time point.
The compounds were extracted from 20 μL plasma by protein precipitation using 120 μL acetonitrile containing an analogue compound as an internal standard. The filtered extracts were collected into a 96 well plate and were diluted with an equal volume of 10% acetonitrile containing 0.1% formic acid in water (v/v). The plate was then mixed on a plate shaker for at least 5 mins before analysis by LC-MS/MS against a calibration line prepared in control plasma.
Each brain was weighed, then homogenised in 3 ml acetonitrile:water (10:90v/v). The compounds were extracted from 200 μL of the resulting homogenate by protein precipitation using 600 μL acetonitrile containing an analogue compound as an internal standard. The extracts were centrifuged and 150 μl of each was filtered and transferred to a 96 well plate. The aliquot was diluted with 10% acetonitrile containing 0.1% formic acid in water (v/v). The plate was mixed on a plate shaker for at least 5 mins before analysis by LC-MS/MS against a calibration line prepared in control brain homogenate.

[5] = target: T3, Progesterone Receptor (Homo sapiens, UniProt P06401); test: Assay for Progesterone Receptor Agonist Activity (CV-1 cells, PRb-BacMam, MMTV-BacMam); assay type: cell-based; conditions: at least once in this assay, read-out: progesterone receptor agonist pEC50 (converted)
T3 construct: expressed in transfected cells; host or cells: CV-1 cells transduced with PRb-BacMam and MMTV-BacMam
T3 sequence (P06401 1-933): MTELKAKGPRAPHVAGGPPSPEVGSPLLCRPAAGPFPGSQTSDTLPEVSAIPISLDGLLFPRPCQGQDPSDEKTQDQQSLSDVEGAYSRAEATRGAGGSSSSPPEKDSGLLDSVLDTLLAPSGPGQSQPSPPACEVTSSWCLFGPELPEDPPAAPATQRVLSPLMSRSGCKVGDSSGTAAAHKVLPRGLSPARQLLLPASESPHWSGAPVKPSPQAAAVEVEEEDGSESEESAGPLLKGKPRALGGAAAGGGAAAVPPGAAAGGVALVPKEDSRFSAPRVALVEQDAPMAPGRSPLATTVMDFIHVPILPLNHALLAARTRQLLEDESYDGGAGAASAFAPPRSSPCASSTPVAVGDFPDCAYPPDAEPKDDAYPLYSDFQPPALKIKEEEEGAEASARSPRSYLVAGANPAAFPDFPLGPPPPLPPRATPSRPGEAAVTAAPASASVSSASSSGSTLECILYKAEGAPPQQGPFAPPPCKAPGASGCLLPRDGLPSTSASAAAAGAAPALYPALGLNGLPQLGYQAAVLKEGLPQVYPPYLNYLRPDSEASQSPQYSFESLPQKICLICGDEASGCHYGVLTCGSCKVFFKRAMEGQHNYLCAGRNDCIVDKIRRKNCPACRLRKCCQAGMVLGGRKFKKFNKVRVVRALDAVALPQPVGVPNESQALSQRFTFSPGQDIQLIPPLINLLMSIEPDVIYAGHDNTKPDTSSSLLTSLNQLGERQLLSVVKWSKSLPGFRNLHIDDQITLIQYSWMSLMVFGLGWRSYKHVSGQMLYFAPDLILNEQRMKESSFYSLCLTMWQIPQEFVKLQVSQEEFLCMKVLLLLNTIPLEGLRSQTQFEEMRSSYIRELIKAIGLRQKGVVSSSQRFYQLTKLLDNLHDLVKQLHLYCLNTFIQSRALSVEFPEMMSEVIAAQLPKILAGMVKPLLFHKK
Method: A T225 flask of CV-1 cells at a density of 80% confluency was washed with PBS, detached from the flask using 0.25% trypsin and counted using a Sysmex KX-21N. Cells were diluted in DMEM containing 10% Hyclone, 2 mM […] and 1% Pen/Strep at 140 cells/μl and transduced with 10% PRb-BacMam and 10% MMTV-BacMam. […] of suspension cells were dispensed to each well of white Nunc 384-well plates, containing compounds at the required concentration. After 24 hr 10 μl of Steadylite were added to each well of the plates. Plates were incubated in the dark for 10 min before reading them on a Viewlux reader. Dose response curves were constructed from which pEC50 values were estimated.

| IC50 [1] [nM] | Emax [2] [%] | Emax ([3]; agonists, A549 SPAP cells, read-out: average maximum asymptote in the NFkB assay) [%] | IC50 ([3]; at least once in the NFkB assay, A549 SPAP cells, read-out: pIC50 in the NFkB assay (converted)) [nM] | IC50 ([3]; at least once, examples listed as agonists in NFkB and MMTV assays, read-out: potency pIC50 in the NFKB assay (converted)) [nM] | Kp at 5 min [4] | EC50 [5] [nM] | Compound |
| --- | --- | --- | --- | --- | --- | --- | --- |
| < 1000 | ≥ 40 | ≥ 40 | < 1000 | < 316 | ≥ 0.1 |  | CCN(CC(O)(CNC(=O)c1cnn(-c2ccc(F)c(F)c2)c1N)C(F)(F)F)C(=O)c1ccccc1 (racemic) [Example 24 (racemic), 5-amino-1-(3,4-difluorophenyl)-N-(2-{[ethyl(phenylcarbonyl)amino]methyl}-3,3,3-trifluoro-2-hydroxypropyl)-1H-pyrazole-4-carboxamide] |
|  |  |  |  |  | ≥ 0.1 | > 1000 | CCN(CC(O)(CNC(=O)c1cnn(-c2ccc(F)cc2)c1N)C(F)(F)F)C(=O)c1ncccc1Cl (single isomer, unassigned) [Example 3 Enantiomer 1, N-[2-[({[5-Amino-1-(4-fluorophenyl)-1H-pyrazol-4-yl]carbonyl]amino)methyl]-3,3,3-trifluoro-2-hydroxypropyl}-3-chloro-N-ethyl-2-Pyridinecarboxamide] |

— patent US20100035926A1, “PYRAZOLE DERIVATIVES AS NON-STEROIDAL GLUCOCORTICOID RECEPTOR LIGANDS” (priority 2006, published 2010)
